Data on 29 compounds can be found in patent US10745361B2, “Piperazine derivatives having multimodal activity against pain” (ESTEVE PHARMACEUTICALS, S.A., priority 2013, dated 2020).

The Ki is the dissociation constant of the complex between target and ligand, obtained from inhibition or displacement.

The assay deals with human σ1 receptor and human μ-opioid receptor. In words: Human σ1 receptor radioligand assay and human μ-opioid receptor radioligand assay (μ and σ1 dual binding). More on the design: key to μ and σ1 dual binding: +: Both Ki-μ and Ki-σ1>=500 nM; ++: One K, <500 nM while the other K, is >=500 nM; +++: Both Ki-μ and Ki-σ1<500 nM; ++++: Both Ki-μ and Ki-σ1<100 nM. The settings on record: one class for both Ki: σ1 ([3H](+)-pentazocine, transfected HEK-293 membranes) and μ-opioid ([3H]-DAMGO, transfected CHO-K1 membranes). How it is done: Human σ1 Receptor Radioligand Assay
To investigate binding properties of σ1 receptor ligands to human σ1 receptor, transfected HEK-293 membranes and [^3H](+)-pentazocine (Perkin Elmer, NET-1056), as the radioligand, were used. The assay was carried out with 7 μg of membrane suspension, 5 nM of [^3H](+)-pentazocine in either absence or presence of either buffer or 10 μM Haloperidol for total and non-specific binding, respectively. Binding buffer contained Tris-HCl 50 mM at pH 8. Plates were incubated at 37° C. for 120 minutes. After the incubation period, the reaction mix was then transferred to MultiScreen HTS, FC plates (Millipore), filtered and plates were washed 3 times with ice-cold 10 mM Tris-HCL (pH7.4). Filters were dried and counted at approximately 40% efficiency in a MicroBeta scintillation counter (Perkin-Elmer) using EcoScint liquid scintillation cocktail
Human μ-Opioid Receptor Radioligand Assay
To investigate binding properties of p-opioid receptor ligands to human p-opioid receptor, transfected CHO-K1 cell membranes and [^3H]-DAMGO (Perkin Elmer, ES-542-C), as the radioligand, were used. The assay was carried out with 20 μg of membrane suspension, 1 nM of [^3H]-DAMGO in either absence or presence of either buffer or 10 μM Naloxone for total and non-specific binding, respectively. Binding buffer contained Tris-HCl 50 mM, MgCl2 5 mM at pH 7.4. Plates were incubated at 27° C. for 60 minutes. After the incubation period, the reaction mix was then transferred to MultiScreen HTS, FC plates (Millipore), filtered and plates were washed 3 times with ice-cold 10 mM Tris-HCL (pH 7.4). Filters were dried and counted at approximately 40% efficiency in a MicroBeta scintillation counter (Perkin-Elmer) using
EcoScint liquid scintillation cocktail.
The following scale as been adopted for representing the binding to the σ1 receptor and the μ-opiod receptor expressed as Ki: • + Both Ki-μ and Ki-σ1>=500 nM • ++ One K, <500 nM while the other K, is >=500 nM • +++ Both Ki-μ and Ki-σ1<500 nM • ++++ Both Ki-μ and Ki-σ1<100 nM
With `CC(C)S(=O)(=O)Nc1cccc(N2CC3CN(Cc4cn(-c5ccccc5)nn4)CC3C2)c1` (centres unmarked) [Example 30, N-(3-(5-((1-phenyl-1H-1,2,3-triazol-4-yl)methyl)hexahydropyrrolo[3,4-c]pyrrol-2(1H)-yl)phenyl)propane-2-sulfonamide], the Ki was below 100 nM.

`Nc1cccc(N2CCN(Cc3cn(-c4ccccc4)nn3)CC2)c1` [Example 31, 3-(4-((1-phenyl-1H-1,2,3-triazol-4-yl)methyl)piperazin-1-yl)aniline] displayed a Ki of at least 500 nM.

Consider `CC(C)(C)NS(=O)(=O)c1cccc(N2CCN(Cc3cn(-c4ccccc4)nn3)CC2)c1` [Example 32, N-tert-butyl-3-(4-((1-phenyl-1H-1,2,3-triazol-4-yl)methyl)piperazin-1-yl)benzenesulfonamide], for which the “μ and σ1 dual binding” value is reported as “++”.

In the case of `CS(=O)(=O)Nc1cccc(N2CCN(Cc3cnn(-c4ccccc4)c3)CC2)c1` [Example 33, N-(3-(4-((1-phenyl-1H-pyrazol-4-yl)methyl)piperazin-1-yl)phenyl)methanesulfonamide], the Ki was below 100 nM.

`CS(=O)(=O)Nc1cccc(N2CCN(Cc3cnn(Cc4ccccc4)c3)CC2)c1` [Example 34, N-(3-(4-((1-benzyl-1H-pyrazol-4-yl)methyl)piperazin-1-yl)phenyl)methanesulfonamide] came in with an inhibitory constant (Ki) below 500 nM.

For the compound `CS(=O)(=O)Nc1cccc(N2CCN(Cc3cnn(Cc4ccccn4)c3)CC2)c1` [Example 35, N-(3-(4-((1-(pyridin-2-ylmethyl)-1H-pyrazol-4-yl)methyl)piperazin-1-yl)phenyl)methanesulfonamide], the “μ and σ1 dual binding” value was “++”.

In the case of `CC(C)S(=O)(=O)Nc1cccc(N2CCN(Cc3cnn(-c4ccccc4)c3)CC2)c1` [Example 36, N-(3-(4-((1-phenyl-1H-pyrazol-4-yl)methyl)piperazin-1-yl)phenyl)propane-2-sulfonamide], the Ki was below 100 nM.

Compound `Oc1cccc(N2CCN(Cc3cnn(-c4ccccc4)c3)CC2)c1` [Example 37, 3-(4-((1-phenyl-1H-pyrazol-4-yl)methyl)piperazin-1-yl)phenol] registered an inhibitory constant (Ki) below 100 nM.

As for `CS(=O)(=O)Nc1cccc(N2CCN(Cc3cnn(-c4ccccn4)c3)CC2)c1` [Example 38, N-(3-(4-((1-(pyridin-2-yl)-1H-pyrazol-4-yl)methyl)piperazin-1-yl)phenyl)methanesulfonamide], the Ki is below 500 nM.

For the compound `CC(C)S(=O)(=O)Nc1cccc(N2CCN(Cc3cnn(-c4ccccn4)c3)CC2)c1` [Example 39, N-(3-(4-((1-(pyridin-2-yl)-1H-pyrazol-4-yl)methyl)piperazin-1-yl)phenyl)propane-2-sulfonamide], the Ki was below 100 nM.

For the compound `CC(C)S(=O)(=O)Nc1cccc(N2CCN(Cc3cn(Cc4ccccc4)cn3)CC2)c1` [Example 40, N-(3-(4-((1-benzyl-1H-imidazol-4-yl)methyl)piperazin-1-yl)phenyl)propane-2-sulfonamide], the Ki was below 500 nM.

For `CS(=O)(=O)Nc1cccc(N2CCN(Cc3cn(-c4ccccc4)nn3)CC2)n1` [Example 41, N-(6-(4-((1-phenyl-1H-1,2,3-triazol-4-yl)methyl)piperazin-1-yl)pyridin-2-yl)methanesulfonamide], the “μ and σ1 dual binding” value is recorded as “++”.

Take `CC(C)S(=O)(=O)Nc1cccc(N2CCN(Cc3cn(-c4ccccc4)nn3)CC2)n1` [Example 42, N-(6-(4-((1-phenyl-1H-1,2,3-triazol-4-yl)methyl)piperazin-1-yl)pyridin-2-yl)propane-2-sulfonamide]: the inhibitory constant (Ki) was below 500 nM.

With `CC(C)S(=O)(=O)Nc1cccc(N2CCN(Cc3cn(-c4ccccc4F)nn3)CC2)n1` [Example 43, N-(6-(4-((1-(2-fluorophenyl)-1H-1,2,3-triazol-4-yl)methyl)piperazin-1-yl)pyridin-2-yl)propane-2-sulfonamide], the “μ and σ1 dual binding” value was “++”.

As to `O=S(=O)(Nc1cccc(N2CCN(Cc3cn(-c4ccccc4F)nn3)CC2)n1)C1CC1` [Example 44, N-(6-(4-((1-(2-fluorophenyl)-1H-1,2,3-triazol-4-yl)methyl)piperazin-1-yl)pyridin-2-yl)cyclopropanesulfonamide], the inhibition constant Ki was below 500 nM.

Turning to `CCC(=O)Nc1cccc(N2CCN(Cc3cn(-c4ccccc4F)nn3)CC2)n1` [Example 45, N-(6-(4-((1-(2-fluorophenyl)-1H-1,2,3-triazol-4-yl)methyl)piperazin-1-yl)pyridin-2-yl)propionamide], the “μ and σ1 dual binding” value is given as “++”.

Turning to `CC(C)S(=O)(=O)Nc1cccc(N2CCN(Cc3cn(-c4ccccc4O)nn3)CC2)n1` [Example 46, N-(6-(4-((1-(2-hydroxyphenyl)-1H-1,2,3-triazol-4-yl)methyl)piperazin-1-yl)pyridin-2-yl)propane-2-sulfonamide], the “μ and σ1 dual binding” value is recorded as “++”.

For the compound `CC(C)S(=O)(=O)Nc1cccc(N2CCN(Cc3cnn(-c4ccccn4)c3)CC2)n1` [Example 47, N-(6-(4-((1-(pyridin-2-yl)-1H-pyrazol-4-yl)methyl)piperazin-1-yl)pyridin-2-yl)propane-2-sulfonamide], the Ki is below 500 nM.

`CC(C)S(=O)(=O)Nc1cccc(N2CCN(Cc3cn(-c4c(F)cccc4F)nn3)CC2)n1` [Example 48, N-(6-(4-((1-(2,6-difluorophenyl)-1H-1,2,3-triazol-4-yl)methyl)piperazin-1-yl)pyridin-2-yl)propane-2-sulfonamide]: the “μ and σ1 dual binding” value is given as “++”.

As for `CC(C)S(=O)(=O)Nc1cccc(N2CCN(Cc3cn(-c4ccc(F)c(F)c4)nn3)CC2)n1` [Example 49, N-(6-(4-((1-(3,4-difluorophenyl)-1H-1,2,3-triazol-4-yl)methyl)piperazin-1-yl)pyridin-2-yl)propane-2-sulfonamide], the “μ and σ1 dual binding” value was “++”.

Turning to `CC(C)S(=O)(=O)Nc1cccc(N2CCN(Cc3cn(-c4ccc(Cl)cc4F)nn3)CC2)n1` [Example 50, N-(6-(4-((1-(4-chloro-2-fluorophenyl)-1H-1,2,3-triazol-4-yl)methyl)piperazin-1-yl)pyridin-2-yl)propane-2-sulfonamide], the “μ and σ1 dual binding” value was “++”.

In turn, `O=S(=O)(Nc1cccc(N2CCN(Cc3cn(-c4ccccc4)nn3)CC2)n1)C1CC1` [Example 51, N-(6-(4-((1-phenyl-1H-1,2,3-triazol-4-yl)methyl)piperazin-1-yl)pyridin-2-yl)cyclopropanesulfonamide] displayed a Ki below 500 nM.

For `CC(C)S(=O)(=O)Nc1ccc(Cl)c(N2CCN(Cc3cn(-c4ccccc4)nn3)CC2)n1` [Example 52, N-(5-chloro-6-(4-((1-phenyl-1H-1,2,3-triazol-4-yl)methyl)piperazin-1-yl)pyridin-2-yl)propane-2-sulfonamide], the inhibitory constant (Ki) was below 500 nM.

`CC(C)S(=O)(=O)Nc1cccc(N2CC3CN(Cc4cn(-c5ccccc5)nn4)CC3C2)n1` (centres unmarked) [Example 53, N-(6-(5-((1-phenyl-1H-1,2,3-triazol-4-yl)methyl)hexahydropyrrolo[3,4-c]pyrrol-2(1H)-yl)pyridin-2-yl)propane-2-sulfonamide] came in with a Ki below 500 nM.

As to `CC(C)S(=O)(=O)Nc1cccc(N2CC3CN(Cc4cn(Cc5ccccc5)nn4)CC3C2)n1` (centres unmarked) [Example 54, N-(6-(5-((1-benzyl-1H-1,2,3-triazol-4-yl)methyl)hexahydropyrrolo[3,4-c]pyrrol-2(1H)-yl)pyridin-2-yl)propane-2-sulfonamide], the “μ and σ1 dual binding” value is given as “++”.

Take `CC(C)S(=O)(=O)Nc1cccc(N2CC3CN(Cc4cn(Cc5ccccn5)nn4)CC3C2)n1` (centres unmarked) [Example 55, N-(6-(5-((1-(pyridin-2-ylmethyl)-1H-1,2,3-triazol-4-yl)methyl)hexahydropyrrolo[3,4-c]pyrrol-2(1H)-yl)pyridin-2-yl)propane-2-sulfonamide]: the “μ and σ1 dual binding” value is “++”.

`COc1cncc(-n2cc(CN3CCN(c4cccc(NS(=O)(=O)C(C)C)n4)CC3)nn2)c1` [Example 56, N-(6-(4-((1-(5-methoxypyridin-3-yl)-1H-1,2,3-triazol-4-yl)methyl)piperazin-1-yl)pyridin-2-yl)propane-2-sulfonamide]: the “μ and σ1 dual binding” value is reported as “++”.

`CC(C)S(=O)(=O)Nc1cccc(N2CCCN(Cc3cn(-c4ccccc4)nn3)CC2)n1` [Example 57, N-(6-(4-((1-phenyl-1H-1,2,3-triazol-4-yl)methyl)-1,4-diazepan-1-yl)pyridin-2-yl)propane-2-sulfonamide] came in with a Ki below 100 nM.

Take `CC(C)S(=O)(=O)Nc1cccc(N2CCN(Cc3cn(-c4ccc(Cl)cn4)nn3)CC2)n1` [Example 58, N-(6-(4-((1-(5-chloropyridin-2-yl)-1H-1,2,3-triazol-4-yl)methyl)piperazin-1-yl)pyridin-2-yl)propane-2-sulfonamide]: the “μ and σ1 dual binding” value was “++”.
